This is an account of results in US20130157285A1, “IDENTIFICATION OF INVASIVE AND SLOW-GROWING TUMORIGENIC CELL SUBSETS IN TUMORS” (The Regents of the University of California, priority 2011, published 2013).

For data set [1] the following is noted: data obtained from Hyal Corporation, cited from earlier work.
Data set [2] relates to MDA-MB-231. Briefly: Inhibition of HA probe uptake, confocal imaging. It is filed as cell-based, human. The following applies: excess HA added either during or prior to addition of HA probe.
The nature of data set [3]: Targeting of HA-based probes in response-to-injury model. It is filed as in vivo, rat. Conditions: radiolabel, magnetic resonance and fluorescence labels. From the text: (§1) We evaluated the targeting ability of HA-based probes in several modalities (radiolabel, magnetic resonance, and fluorescence) to areas of microenvironment remodeling that are associated with both tissue injury and tumor formation. We chose well-characterized rat balloon injured carotid arteries as a response to injury model, and xenografts of MDA-MB-231 cells as a tumor model.

The subject of data set [4] is S1. Kind of data set: Fluorescent HA probe binding by flow cytometry (FACS). It is filed as cell-based, human. The following applies: Table 1; SI (S1); HA probe binding/uptake. From the text:
(§2) Simultaneous profiling of cell surface markers and HA binding/uptake required the establishment of a sensitive multiplexed detection method, which could detect both the cell surface receptors and the binding/uptake of ligand (HA). We utilized fluorescence-activated cell sorting (FACS) and established protocols for minimum decoration of cells by antibodies and HA, maximum detection sensitivity at the cell surface, and retained viability/functionality during and after sort. Fluorescent HA probes and antibodies were synthesized and characterized in a panel of human breast cancer cell lines (MDA-MB-231, SUM1315MO2, HS-578T, MDA-MB-468, HCC-1569, BT-20, MCF-10A, S1, T4-2, MCF-7, BT474, SK-BR3, AU565, MDA-MB-361, D920, SK3 [RHAMM−/− and CD44−/− were used as negative controls], and 10T½ [RHAMM+/+ were used as positive controls]). In brief, soluble HA (280,000 dalton) was linked to hydrazide-activated fluorochromes and monoclonal antibodies were directly conjugated to tetrafluorophenyl (TFP) ester activated fluorochromes (Alexa Fluor 647 and sometimes to Alexa Fluor 488) and reacted with the live cells under sterile dark conditions. Four fluorochromes were selected in a manner that provided minimal fluorescent spectral overlaps and maximal brightness for low-expressing markers, which allowed sensitive monitoring of subtle changes in marker expression and HA binding capacity in live cells. Near infrared fluorescence range was selected for HA to extend signal stability during multiple stages of characterizations (Alexa Fluor 647). […] As well, these appeared to non-specifically interact with each other and with cells, which would require extensive characterization and optimization. Therefore, we continued our study using minimally-decorated HA and antibodies by fluorochromes, as described below, and successfully profiled multiple cell surface markers.
(§3) (1) Grow cells to 50% confluence on culture flask; (2) Rinse in Ca^2+-free Hank's Buffered Saline Solution (HBSS/20 mM HEPES, pH 7.3); (3) Harvest cells with non-enzymatic HBSS-based cell dissociation solution; (4) Resuspend in cold and sterile PBS solution that contains Antibiotic, HEPES pH 7.4, Insulin, and Transferrin (PBS/additive solution); (5) Centrifuge and eliminate supernatant; (6) Wash in cold PBS/additive solution; (7) Count cells using cell counter instrument and measure viability; (8) Treat cells (in suspension) with Alexa Flour 647-HA; (9) Incubate for 45 min on ice, in dark.
(§4) For single-color HA-binding flow cytometry: (a) wash the cells, eliminate supernatant and adjust concentration of solution appropriate for flow cytometry and (b) perform live cell flow cytometry immediately.
(§5) Cells were grown to 50%-70% confluence in 75 cm^2 culture flasks in DMEM supplemented with 10% FCS at 37° C. and 5% CO2, then subcultured every 3-4 days. For HA uptake experiments, cells were grown to 50% subconfluence, which was achieved 12-20 hrs after subculture, in order to maximize RHAMM surface display. Cells were rinsed in Ca++-free Hanks Buffered Saline (HBSS) solution/20 mM HEPES, pH 7.3, and removed from the substratum by incubating in non-enzymatic HBSS-based solution (Sigma-Aldrich[H-6648]) for 2-3 min, which preserves cell surface epitopes (Veiseh M, et al, Biomacromolecules 2012, Hamilton S. R. et al, JBC, 2007). Viablity of cells was assessed using a Vi_CELL cell analyzer.
(§6) 0.2 ml of soluble HA (1% HA, MWav=280,000 dalton) was activated in 1 ml of a (0.0028 g/1 ml MES) N-(3-Dimethylaminopropyl)-N′-ethylcarbodiimide hydrochloride (EDAC) solution (Sigma-Aldrich) in 4-morpholineethanesulfonic acid (MES) (20 mM, pH 4.5, Sigma-Aldrich), and the resulting solution was reacted with 0.3 ml of A^647-HA hydrazide, tris(triethylammonium) salt (Invitrogen, 1 mg/ml in H2O) in the dark at RT. The solution was covered in aluminum foil and placed on a rocker for 12 hrs at room temperature. […]
In general terms: In flow cytometry, cells or beads pass a laser one at a time.

Data set [5] concerns T4-2. The data set is described as above. It is filed as cell-based, human.
Excerpt: as §2, §3, §4, §5, §6

Data set [6] relates to MCF-7. Described as above. It is filed as cell-based, human. Conditions: Table 1, HA probe binding/uptake.
Excerpt: as §2, §3, §4, §5, §6

The subject of data set [7] is MCF-10A. The description is as above. The following applies: Table 1, HA probe binding/uptake. It is filed as cell-based, human.
Excerpt: as §2, §3, §4, §5, §6

Data set [8] concerns SKBR-3. The data set is described as above. It is filed as cell-based, human.
Excerpt: as §2, §3, §4, §5, §6

Data set [9] concerns MDA-MB-231. Described as above. It is filed as cell-based, human.
Excerpt: as §2, §3, §4, §5, §6

Data set [10] has as its system MDA-MB-231 tumor cells. Briefly: Extravasation efficiency in chick chorioallantoic membrane (CAM). It is filed as in vivo, chicken embryos. The following applies: 24 hrs after injection into CAM vein; cells pre-treated with HA for 1 hour on ice. The method, then:
Fertilized chicken eggs were incubated in a rotary incubator at 37° C. with 90% humidity for 4 days before being removed from the shell and placed in covered dishes and incubated at 37° C. with 90% humidity until usage (PMID:20671724). On day 13 of embryonic development, 7.5×10^4 tumor cells in 100 μL PBS were intravenously injected into a vein within the chorioallantoic membrane (CAM, N=5 each group) (PMID-20671724). Prior to injection, cancer cells were pre-treated with HA (100 mg/ml) or vehicle (PBS) for 1 hour on ice. […] At least 200 cells for each ROI at T=0 was analyzed and enumerated.
Extravasated tumor cells can be observed in interstitial spaces 24-72 hrs after their injection into CAM veins but by this time cell bound F-HA is not detectable since it has been metabolized (FIG. 22B). To determine if F-HA promotes extravasation of dt-Tomato expressing tumor cells, we therefore simply measured the number of extravasated tumor cells at varying times after injection with or without unlabeled HA, used at the same concentration and polydispersity as F-HA, with intravial confocal imaging (FIG. 22C-D). […] We next determined if exposing tumor cells to HA increased extravasation, choosing 24 hrs after injection rather than 72 hrs shown in FIG. 22C to reduce the contribution of proliferation to appearance of extravascular tumor colonies. […]

Data set [11] has as its system xenografts of MDA-MB-231 cells. Briefly: Targeting of HA-based probes in tumor model. It is filed as in vivo. The following applies: radiolabel, magnetic resonance and fluorescence labels.
Excerpt: as §1

Where [12] appears, read: Table 1, HA probe binding/uptake.

For the substance hyaluronan [HA], in data set [1] (I.V. 1-12 mg/kg), the “tolerability of HA injected I.V.” value is reported as “well tolerated”. Moreover, the “T½ from HA serum levels” value in data set [1] (I.V., 1.5 mg/kg dose) was 12 h. In data set [2], the “effect on signal of HA probe uptake” value was “reduced”. Further, in data set [3], the “targeting of HA-based probes to injured tissue” value is “selective targeting”. Moreover, the HA binding result in [4] is “Medium”; in [5] (setting [12]), “High”; in [6], “Low”; in data set [7] it was “Medium”; in [8] (setting [12]), “Low”; in data set [9] (setting [12]), “Very high”. Also, the HA binding level result was “HA^2+” in data set [5] (Table 6), “HA^+” in data set [8] (Table 6) and “HA^4+” in data set [9] (Table 6). The “extravasation efficiency of tumor cells exposed to HA vs untreated cells” value in data set [10] was “twice”. The “targeting of HA-based probes to tumor tissue” value in data set [11] is reported as “selective targeting”.
